Several values for one entry are separate records, joined by “and”; a condition that tells them apart may be missing. Equal entries are not always repeated. Where two headings read alike, the source gives them in different places.
Tests used:
human thrombin = biological target: T1, human thrombin (Homo sapiens, UniProt P00734); experiment: Inhibitory activity for thrombin (chromogenic substrate hydrolysis, 405 nm); type: biochemical
T1 construct: purchased Sigma T-6759
Procedure, shortened: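 Thrombin: human enzyme (5 units/ml stock, 0.1% BSA) acted for 20 min on N-benzoyl-Phe-Val-Arg-p-nitroanilide in 125 mM NaCl, 50 mM Tris-HCl pH 8.0, with compounds dissolved in 50% methanol. Hydrolysis was read at 405 nm. Selectivity index was trypsin IC50 divided by thrombin IC50.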

[1] = Pharmacokinetic test in rats (intravenous injection and oral administration); type: in vivo, S.D. male rats; details: for bioavailability: oral vs intravenous
Experimental: S.D. male rats weighing 200±20 g which had fasted overnight were subjected to cannulation at their femoral veins and arteries. Compound 88 prepared in Example 62 was dissolved in physiological saline and then administered to the rats both by intravenous injection and oral administration. Blood was taken at prescribed intervals of time and then immediately mixed with methanol. The mixture was centrifuged (15,000 rpm, 5 min., 4° C.) to obtain quantitative amount of the supernatant which was then subjected to HPLC in Diode Array Detector at 254 nm to analyse the concentration of the test compound in the blood.

[2] = tested on: thrombin time (TT) in rat plasma; experiment: Thrombin time (TT) in rat plasma after oral administration; type: in vivo, SD male rats; details: TT after / TT before administration
Experimental: SD male rats weighing 220±20 g which had fasted overnight were used as experimental animals. Blood taken from the hearts of the experimental animals just before administration of the test compound and at 30, 60, 120 and 240 minutes after oral administration of the test compound was mixed with 0.108M sodium citrate in the ratio of 9:1. The mixtures thereby obtained were centrifuged at 15,000 rpm for 5 minutes at 4° C. to separate the plasma, which was stored at -20° C. until the TT was measured by means of the method described below.
200 μl of Owren's buffer was added to 50 μl of the plasma and 100 μl of the diluted plasma thereby obtained was injected into the vial of a coagulometer and then incubated for 2 minutes at 37° C. To each vial was added 100 μl of thrombin at a concentration of 20 U/ml, which had prewarmed at 37° C., to measure the time (TT) until clotting occurred. The ratio of the TT in rat plasma after administration of the test compound to the TT in rat plasma before administration of the test compound was calculated.

Selectivity (trypsin/thrombin) (human thrombin; IC50 for trypsin divided by IC50 for thrombin): 8.1 | IC50 (human thrombin; human thrombin, 20 min, pH 8.0, N-benzoyl-Phe-Val-Arg-p-nitroanilide): 0.0159 µM | Blood concentration, individual rats (Rat-1 to Rat-5) ([1]; i.v. 10 mg/kg, 0.000 h): 0 ng/mL | Blood concentration, individual rats (Rat-1 to Rat-5) ([1]; i.v. 10 mg/kg, 2.000 h, 10 mg/kg): 0 ng/mL | Blood concentration, individual rats (Rat-1 to Rat-5) ([1]; i.v. 10 mg/kg, 4.000 h, 10 mg/kg): 0 ng/mL | Blood concentration, individual rats (Rat-1 to Rat-5) ([1]; i.v. 10 mg/kg, 4.000 h, 10 mg/kg, 240 min): 121 ng/mL and 55 ng/mL | Blood concentration, individual rats (Rat-1 to Rat-5) ([1]; i.v. 10 mg/kg, 6.000 h, 10 mg/kg): 0 ng/mL | Blood concentration, individual rats (Rat-1 to Rat-5) ([1]; i.v. 10 mg/kg, 6.000 h, 10 mg/kg, 360 min): 51 ng/mL | Blood concentration, individual rats (Rat-1 to Rat-5) ([1]; i.v. 10 mg/kg, 24.000 h): 0 ng/mL | Blood concentration, individual rats (Rat-1 to Rat-5) ([1]; oral 100 mg/kg, 0.000 h): 0 ng/mL | Blood concentration, individual rats (Rat-1 to Rat-5) ([1]; oral 100 mg/kg, 2.000 h, 100 mg/kg): 0 ng/mL | Blood concentration, individual rats (Rat-1 to Rat-5) ([1]; oral 100 mg/kg, 4.000 h, 100 mg/kg): 0 ng/mL | Blood concentration, individual rats (Rat-1 to Rat-5) ([1]; oral 100 mg/kg, 4.000 h, 100 mg/kg, 240 min): 121 ng/mL and 55 ng/mL | Blood concentration, individual rats (Rat-1 to Rat-5) ([1]; oral 100 mg/kg, 6.000 h, 100 mg/kg): 0 ng/mL | Blood concentration, individual rats (Rat-1 to Rat-5) ([1]; oral 100 mg/kg, 6.000 h, 100 mg/kg, 360 min): 51 ng/mL | Blood concentration, individual rats (Rat-1 to Rat-5) ([1]; oral 100 mg/kg, 24.000 h): 0 ng/mL | concentration at 0.083 h ([1]; rat, blood, iv, 10 mg/kg, i.v. 10 mg/kg, 0.083 h, read-out: Blood concentration, individual rats (Rat-1 to Rat-5)): 8790 ng/mL | concentration at 6 h ([1]; rat, blood, iv, 10 mg/kg, i.v. 10 mg/kg, 6.000 h, read-out: Blood concentration, individual rats (Rat-1 to Rat-5)): 90 ng/mL | concentration at 0.033 h ([1]; rat, blood, iv, 10 mg/kg, rats, i.v. 10 mg/kg, 0.033 h): 21700 ng/mL | concentration at 0.083 h ([1]; rat, blood, iv, 10 mg/kg, rats, i.v. 10 mg/kg, 0.083 h, read-out: Blood concentration, Mean): 11500 ng/mL | concentration at 0.25 h ([1]; rat, blood, iv, 10 mg/kg, rats, i.v. 10 mg/kg, 0.250 h): 4150 ng/mL | concentration at 0.5 h ([1]; rat, blood, iv, 10 mg/kg, rats, i.v. 10 mg/kg, 0.500 h): 1780 ng/mL | concentration at 1 h ([1]; rat, blood, iv, 10 mg/kg, rats, i.v. 10 mg/kg, 1.000 h): 775 ng/mL | concentration at 2 h ([1]; rat, blood, iv, 10 mg/kg, rats, i.v. 10 mg/kg, 2.000 h): 178 ng/mL | concentration at 4 h ([1]; rat, blood, iv, 10 mg/kg, rats, i.v. 10 mg/kg, 4.000 h): 35 ng/mL | concentration at 6 h ([1]; rat, blood, iv, 10 mg/kg, rats, i.v. 10 mg/kg, 6.000 h, read-out: Blood concentration, Mean): 28 ng/mL | concentration at 0.083 h ([1]; rat, blood, po, 100 mg/kg, oral 100 mg/kg, 0.083 h, read-out: Blood concentration, individual rats (Rat-1 to Rat-5)): 8790 ng/mL | concentration at 6 h ([1]; rat, blood, po, 100 mg/kg, oral 100 mg/kg, 6.000 h, read-out: Blood concentration, individual rats (Rat-1 to Rat-5)): 90 ng/mL | concentration at 0.033 h ([1]; rat, blood, po, 100 mg/kg, rats, oral 100 mg/kg, 0.033 h): 21700 ng/mL | concentration at 0.083 h ([1]; rat, blood, po, 100 mg/kg, rats, oral 100 mg/kg, 0.083 h, read-out: Blood concentration, Mean): 11500 ng/mL | concentration at 0.25 h ([1]; rat, blood, po, 100 mg/kg, rats, oral 100 mg/kg, 0.250 h): 4150 ng/mL | concentration at 0.5 h ([1]; rat, blood, po, 100 mg/kg, rats, oral 100 mg/kg, 0.500 h): 1780 ng/mL | concentration at 1 h ([1]; rat, blood, po, 100 mg/kg, rats, oral 100 mg/kg, 1.000 h): 775 ng/mL | concentration at 2 h ([1]; rat, blood, po, 100 mg/kg, rats, oral 100 mg/kg, 2.000 h): 178 ng/mL | concentration at 4 h ([1]; rat, blood, po, 100 mg/kg, rats, oral 100 mg/kg, 4.000 h): 35 ng/mL | concentration at 6 h ([1]; rat, blood, po, 100 mg/kg, rats, oral 100 mg/kg, 6.000 h, read-out: Blood concentration, Mean): 28 ng/mL | bioavailability ([1]; rat, blood, po, rats, read-out: Bioavailability): 32.6% | half-life ([1]; rat, blood, rats, mean ± error, read-out: Elimination Half-life (converted)): 1.07 ± 0.27 h | half-life ([1]; rat, blood, rats, read-out: elimination half-time): 1.07 h | Blood concentration, Mean ([1]; rats, i.v. 10 mg/kg, 0.000 h): 0 ng/mL | Blood concentration, Mean ([1]; rats, i.v. 10 mg/kg, 24.000 h): 0 ng/mL | Blood concentration, Mean ([1]; rats, oral 100 mg/kg, 0.000 h): 0 ng/mL | Blood concentration, Mean ([1]; rats, oral 100 mg/kg, 24.000 h): 0 ng/mL | bioavailability ([1]; rats): 32.62 ± 7.69%
Structure (SMILES): CCn1c(CC[C@@H]2CCCN2C(=O)[C@H]2CCCN2CC(=O)O)cc2ccc(C(=N)N)cc21 [Compound 88, 2-[(R)-2-[[(S)-2-[2-(6-amidino-1-ethylindol-2-yl)ethyl]pyrrolidinyl]carbonyl]pyrrolidinyl]acetic acid]
Blood concentration, individual rats (Rat-1 to Rat-5) ([1]; i.v. 10 mg/kg, 0.033 h, 10 mg/kg, 1.98 min): 11186 ng/mL and 25999 ng/mL and 23841 ng/mL and 28971 ng/mL and 18505 ng/mL | Blood concentration, individual rats (Rat-1 to Rat-5) ([1]; i.v. 10 mg/kg, 0.083 h, 10 mg/kg, 4.98 min): 11984 ng/mL and 10776 ng/mL and 14222 ng/mL and 11623 ng/mL | Blood concentration, individual rats (Rat-1 to Rat-5) ([1]; i.v. 10 mg/kg, 0.250 h, 10 mg/kg, 15 min): 2707 ng/mL and 4629 ng/mL and 3531 ng/mL and 5982 ng/mL and 3895 ng/mL | Blood concentration, individual rats (Rat-1 to Rat-5) ([1]; i.v. 10 mg/kg, 0.500 h, 10 mg/kg, 30 min): 816 ng/mL and 1963 ng/mL and 1685 ng/mL and 2939 ng/mL and 1516 ng/mL | Blood concentration, individual rats (Rat-1 to Rat-5) ([1]; i.v. 10 mg/kg, 1.000 h, 10 mg/kg, 60 min): 784 ng/mL and 773 ng/mL and 577 ng/mL and 1204 ng/mL and 535 ng/mL | Blood concentration, individual rats (Rat-1 to Rat-5) ([1]; i.v. 10 mg/kg, 2.000 h, 10 mg/kg, 120 min): 204 ng/mL and 98 ng/mL and 424 ng/mL and 162 ng/mL | Blood concentration, individual rats (Rat-1 to Rat-5) ([1]; oral 100 mg/kg, 0.033 h, 100 mg/kg, 1.98 min): 11186 ng/mL and 25999 ng/mL and 23841 ng/mL and 28971 ng/mL and 18505 ng/mL | Blood concentration, individual rats (Rat-1 to Rat-5) ([1]; oral 100 mg/kg, 0.083 h, 100 mg/kg, 4.98 min): 11984 ng/mL and 10776 ng/mL and 14222 ng/mL and 11623 ng/mL | Blood concentration, individual rats (Rat-1 to Rat-5) ([1]; oral 100 mg/kg, 0.250 h, 100 mg/kg, 15 min): 2707 ng/mL and 4629 ng/mL and 3531 ng/mL and 5982 ng/mL and 3895 ng/mL | Blood concentration, individual rats (Rat-1 to Rat-5) ([1]; oral 100 mg/kg, 0.500 h, 100 mg/kg, 30 min): 816 ng/mL and 1963 ng/mL and 1685 ng/mL and 2939 ng/mL and 1516 ng/mL | Blood concentration, individual rats (Rat-1 to Rat-5) ([1]; oral 100 mg/kg, 1.000 h, 100 mg/kg, 60 min): 784 ng/mL and 773 ng/mL and 577 ng/mL and 1204 ng/mL and 535 ng/mL | Blood concentration, individual rats (Rat-1 to Rat-5) ([1]; oral 100 mg/kg, 2.000 h, 100 mg/kg, 120 min): 204 ng/mL and 98 ng/mL and 424 ng/mL and 162 ng/mL | distribution and disappearance after intravenous injection ([1]; rats, intravenous injection): rapidly distributed in the body and slowly disappeared | Plasma TT ratio after administration to rat ([2]; 30 mg/kg oral): 2.62 | Plasma TT ratio after administration to rat ([2]; 50 mg/kg oral): 7.83

Reference: US6201006A, “Aromatic amidine derivatives useful as selective thrombin inhibitors” (C & C Research Laboratories, priority 1996, dated 2001)
